According to US11952364B2, “TRK inhibitors useful as anticancer drugs” (TYLIGAND BIOSCIENCE (SHANGHAI) LIMITED, priority 2018, dated 2024):
Where two headings read alike, the source gives them in different places. Each block holds one molecule with its values, some of them ahead of it.

System: Ba/F3 LMNA-NTRK1-G667C cells
Assay: Proliferation of Ba/F3 LMNA-NTRK1-G667C cells (CellTiter-Glo)
Format: cell-based, mouse
Conditions: Mus musculus, read-out: Ba/F3 LMNA-NTRK1-G667C, IC50
Excerpt: Ba/F3 LMNA-NTRK1-G667C is a stable transgenic cell line constructed by KYinno Biotechnology Co., Ltd. on mouse primary B cell Ba/F3 wherein NTRK1 has a mutation of G to Cat position 667 and is highly expressed and fused with LMNA to form LMNA-NTRK1-G667C. • [Test method]: Promega's CellTiter-Glo® Luminescent Cell Viability Assay kit was used to evaluate the inhibitory activity of the compounds on the proliferation of Ba/F3 LMNA-NTRK1-G667C cells. • [Instrument]: Spectramax M3 multifunctional microplate reader from Molecular Devices. • [Test materials]: Ba/F3 LMNA-NTRK1-G667C cell line (constructed by KYinno Co., Ltd. (Beijing)), 96-well transparent flat-bottomed black-walled cell culture plate (Corning, cat #3603), RPMI-1640 media (GE, cat #SH30027.01), fetal bovine serum FBS (Thermo Fisher, cat #10099-141), CellTiter-Glo® Luminescent Cell Viability Assay kit (Promega, cat #G7572), PBS (Solarbio, cat #P1020), DMSO (Sigma, cat #D2650). • [Experimental procedure]: When resuscitating Ba/F3 LMNA-NTRK1-G667C cells, the freezing tube was quickly shaken in a 37° C. water bath to melt within 1 minute. The thawed cell suspension was mixed uniformly with RPMI1640 medium containing 10% FBS, centrifuged at 1000 rpm for 5 minutes, and the supernatant discarded. 5 mL of complete medium (RPMI1640 medium with 10% FBS) was taken to resuspend the cell pellets, charged into a cell culture flask with a bottom area of 25 cm^2, and incubated in a cell incubator at 37° C., 95% humidity and 5% CO2. Cells were allowed to passage when the number of cells reached about 10^6 cells/mL. For cell passage, the old cell suspension was directly pipetted evenly, 1/5 of the cell suspension was kept, 4 mL of new complete medium was added, after pipetting evenly, the cell flask was placed in the cell incubator for further culturing. Cell plating was performed when the number of cells reached about 10^6 cells/mL again. For cell plating, 1/5 of the cell suspension was kept for further culturing as in the cell passage method, and the remaining 4/5 of the cell suspension was placed in a 15 mL centrifuge tube, detected for cell viability by Trypan blue exclusion method to ensure that cell viability was above 90%. A cell suspension with a density of 5.56×10^4 viable cells/mL was prepared with complete medium, and 90 μL of such cell suspension was added to a 96-well cell culture plate to obtain the cell density of 5000 viable cells/mL in the cell culture plate. A control group containing no cells, no compound and only complete medium (i.e. culture medium control) and a control group containing no compound but containing cells (i.e. cell control) were set. The cell plate was placed in a cell incubator overnight. The 10 mM compound stock solution in DMSO was first serially diluted with DMSO at a dilution factor of 3.16 times, to obtain 9 concentrations, and the 10th concentration was set as DMSO control without compound. Then, PBS was used to dilute the DMSO solutions of compounds of different concentrations, at a dilution factor of 100 times, so that the DMSO concentration in the compound solution of each concentration was 1%. Finally, 10 μL of each of the above solutions was added to the corresponding cell culture plate, so that the initial compound concentration was 10 μM, with the remaining concentrations being successively diluted at a dilution factor of 3.16 times, and the DMSO content in the cell culture plate was 0.1%. The cell plate was placed in a cell incubator and cultured for 72 hours. For endpoint detection, the CellTiter-Glo reagent was melted, and the cell plate was moved to room temperature to equilibrate for 30 minutes, added with 100 μL of CellTiter-Glo for each well, and shaken on an orbital shaker for 5 minutes to fully lyse the cells. The plate was kept at room temperature for 20 minutes to stabilize the luminescence signal, and the luminescence value of each well was scanned with a multi-functional microplate reader at full wavelength. • [Test samples] […]

- IC50 (BaF3, Table 4-1, separate test): 2 nM
Structure (SMILES): CCn1ncc2cc(Oc3ccc(NC(=O)c4ccc(C5CC5)n(-c5ccc(F)cc5)c4=O)cc3F)c(-c3cn[nH]c3)cc21 [Example 19, N-(3-fluoro-4-(1-ethyl-6-(1H-pyrazol-4-yl)-1H-indazol-5-yloxy)phenyl)-1-(4-fluorophenyl)-6-cyclopropyl-2-oxo-1,2-dihydropyridine-3-carboxamide]

- IC50 (BaF3, Table 4-2, separate test): 8.6 nM
Structure (SMILES): CCOc1ccc(C(=O)Nc2ccc(Oc3cc4cnn(C)c4cc3-c3cn[nH]c3)c(F)c2)c(=O)n1-c1ccc(F)cc1 [Example 14, N-(3-fluoro-4-(1-methyl-6-(1H-pyrazol-4-yl)-1H-indazol-5-yloxy)phenyl)-1-(4-fluorophenyl)-6-ethoxy-2-oxo-12-dihydropyridine-3-carboxamide]

- IC50 (BaF3, 72 h, Table 4, 72 hours): 2410 nM
Structure (SMILES): O=C(Nc1cnn2ccc(N3CCC[C@@H]3c3cc(F)ccc3F)nc12)N1CC[C@H](O)C1 [LOXO-101, Larotrectinib, reference compound]
